By inhibition is commonly meant how much of the control response was suppressed. For orientation: IC50 means the concentration needed to halve the response being measured.

The target in one assay is T1, c-kit (Homo sapiens, UniProt P10721).
T1 construct: MO7e (human megakaryocytic leukemia cell line) which had been arrested for 20 hr; endogenous in cells; host or cells: MO7e human megakaryocytic leukemia cell line
The experiment in a line: Inhibitory activity against c-kit autophosphorylation (MO7e cells, h-SCF). To be noted: for inhibition at 1 µM: Mo7e, figure in parentheses in −( ), at 1000 nM; for IC50: MO7e cells, h-SCF stimulation, read-out: c-kit IC50. Format: cell-based. In short, it runs like this:
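First, human megakaryocytic leukemia MO7e cells arrested 20 hr receive compound for one hour. Second, SCF stimulation (50 ng/ml) runs 5 min, after which cells are solubilized. Third, tyrosine-phosphorylated c-kit in the lysate is quantified by sandwich ELISA with absorbance at 450 nm.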

The next assay concerns the target T2, PDGF-Ra (Homo sapiens, UniProt P16234).
T2 construct: host or cells: G-292 human osteosarcoma cells
The assay is described as follows: Inhibitory activity against PDGF-Ra phosphorylation by PDGF-AA stimulation using G292. Format: cell-based. To be noted: for IC50: > means inhibition at indicated concentration not more than 50%, < and << not less than 50%, read-out: PDGF (E) IC50; for PDGF (E) inhibition (%), figure in parentheses in >30( ): concentration not defined in key (presumably 30 nM); for inhibition at 0.1 µM: G292, figure in parentheses in >100( ), at 100 nM, read-out: PDGF (E) inhibition (%) at 100 nM. The method in brief:
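In G-292 osteosarcoma cells kept overnight in 0.1% FBS, compound exposure (1 hr, 37 °C) preceded PDGF-AA stimulation at 50 ng/ml for 5 min; receptor phosphotyrosine was then detected by PY-20 capture ELISA.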

T1 sequence (P10721 26-976): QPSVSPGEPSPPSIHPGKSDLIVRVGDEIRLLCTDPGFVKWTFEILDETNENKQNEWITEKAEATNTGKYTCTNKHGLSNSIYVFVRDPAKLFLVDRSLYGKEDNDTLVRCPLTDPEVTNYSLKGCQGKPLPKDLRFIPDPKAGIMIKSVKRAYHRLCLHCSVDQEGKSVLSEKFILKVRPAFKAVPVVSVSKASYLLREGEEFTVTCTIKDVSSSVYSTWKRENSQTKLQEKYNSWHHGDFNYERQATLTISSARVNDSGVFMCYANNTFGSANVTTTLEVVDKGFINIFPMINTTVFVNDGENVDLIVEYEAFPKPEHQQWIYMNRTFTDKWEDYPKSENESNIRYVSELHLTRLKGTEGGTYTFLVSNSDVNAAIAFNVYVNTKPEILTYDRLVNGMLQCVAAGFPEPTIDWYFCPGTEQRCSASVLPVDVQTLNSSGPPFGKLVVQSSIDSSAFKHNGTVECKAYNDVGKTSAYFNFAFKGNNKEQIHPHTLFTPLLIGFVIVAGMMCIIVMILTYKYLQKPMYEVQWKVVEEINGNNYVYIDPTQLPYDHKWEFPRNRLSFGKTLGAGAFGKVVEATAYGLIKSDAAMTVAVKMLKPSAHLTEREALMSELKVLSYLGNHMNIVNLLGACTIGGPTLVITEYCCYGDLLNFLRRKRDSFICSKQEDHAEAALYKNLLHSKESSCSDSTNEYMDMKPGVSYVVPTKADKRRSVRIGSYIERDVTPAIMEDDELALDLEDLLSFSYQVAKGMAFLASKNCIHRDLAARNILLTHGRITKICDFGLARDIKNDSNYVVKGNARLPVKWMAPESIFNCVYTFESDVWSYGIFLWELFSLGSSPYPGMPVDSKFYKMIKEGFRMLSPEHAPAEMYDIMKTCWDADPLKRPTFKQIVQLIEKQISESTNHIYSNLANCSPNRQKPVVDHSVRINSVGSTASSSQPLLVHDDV
T2 sequence (P16234 24-1089): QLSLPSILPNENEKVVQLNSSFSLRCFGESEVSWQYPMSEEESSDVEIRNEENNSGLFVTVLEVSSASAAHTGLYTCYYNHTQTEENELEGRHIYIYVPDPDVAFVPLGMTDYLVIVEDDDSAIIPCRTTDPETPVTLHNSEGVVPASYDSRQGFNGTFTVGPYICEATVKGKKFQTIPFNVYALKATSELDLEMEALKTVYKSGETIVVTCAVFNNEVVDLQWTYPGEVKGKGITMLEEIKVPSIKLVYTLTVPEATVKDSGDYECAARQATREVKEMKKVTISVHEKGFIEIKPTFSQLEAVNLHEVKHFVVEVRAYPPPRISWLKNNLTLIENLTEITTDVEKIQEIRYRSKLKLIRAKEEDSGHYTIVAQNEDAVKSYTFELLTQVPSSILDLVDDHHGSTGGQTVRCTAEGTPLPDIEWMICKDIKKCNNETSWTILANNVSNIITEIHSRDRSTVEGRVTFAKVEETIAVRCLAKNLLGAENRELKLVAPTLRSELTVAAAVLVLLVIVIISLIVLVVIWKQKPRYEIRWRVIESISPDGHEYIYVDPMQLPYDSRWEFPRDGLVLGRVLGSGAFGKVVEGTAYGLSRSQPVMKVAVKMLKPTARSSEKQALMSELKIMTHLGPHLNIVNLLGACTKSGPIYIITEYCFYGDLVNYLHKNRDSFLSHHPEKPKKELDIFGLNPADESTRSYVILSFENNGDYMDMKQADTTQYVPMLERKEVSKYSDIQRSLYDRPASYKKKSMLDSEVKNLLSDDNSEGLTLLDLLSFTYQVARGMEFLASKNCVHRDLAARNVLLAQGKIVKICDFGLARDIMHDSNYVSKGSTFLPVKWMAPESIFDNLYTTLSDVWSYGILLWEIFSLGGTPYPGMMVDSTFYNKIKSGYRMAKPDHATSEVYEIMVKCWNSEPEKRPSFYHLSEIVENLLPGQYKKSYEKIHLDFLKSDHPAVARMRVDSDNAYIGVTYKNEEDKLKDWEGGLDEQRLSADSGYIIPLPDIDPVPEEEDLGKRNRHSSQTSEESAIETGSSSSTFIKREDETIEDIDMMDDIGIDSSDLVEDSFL

For the compound `COc1cc2ncnc(Oc3ccc(OCCCn4ccc5ccccc54)cc3)c2cc1OC` [Example 811, 4-{4-[3-(1H-1-Indolyl)propoxy]phenoxy}-6,7-dimethoxyquinazoline], the inhibition at 1 µM at c-kit was determined as 20%. Moreover, the IC50 at PDGF-Ra turned out to be 17 nM.

For `COc1cc2nccc(Oc3ccc(NCCOc4cccc(C)c4)cc3C)c2cc1OC` [Example 878, N-{4-[(6,7-Dimethoxy-4-quinolyl)oxy]-3-methylphenyl}-N-[2-(3-methylphenoxy)ethyl]amine], the IC50 at c-kit worked out at 65 nM; at PDGF-Ra, 19 nM.

Regarding `COc1cc2nccc(Oc3ccc(NCCOc4ccc(C)cc4)cc3C)c2cc1OC` [Example 879, N-{4-[(6,7-Dimethoxy-4-quinolyl)oxy]-3-methylphenyl}-N-[2-(4-methylphenoxy)ethyl]amine], the concentration for half-maximal inhibition (IC50) was determined as 48 nM on c-kit and 20 nM on PDGF-Ra.

Consider `COc1cc2nccc(Oc3ccc(NCCOc4ccccc4OC)cc3C)c2cc1OC` [Example 880, N-{4-[(6,7-Dimethoxy-4-quinolyl)oxy]-3-methylphenyl}-N-[2-(2-methoxyphenoxy)ethyl]amine], for which the IC50 at c-kit is 149 nM; at PDGF-Ra, 16 nM.

Consider `COc1cc2nccc(Oc3ccc(NCCOc4c(C)cccc4C)cc3C)c2cc1OC` [Example 881, N-{4-[(6,7-Dimethoxy-4-quinolyl)oxy]-3-methylphenyl}-N-[2-(2,6dimethylphenoxy)ethyl]amine], for which the IC50 on c-kit is 346 nM. On PDGF-Ra, the 50% inhibitory concentration (IC50) was over 30 nM and the “PDGF (E) inhibition (%), figure in parentheses in >30( )” value worked out at 29%.

`COc1cc2nccc(Oc3ccc(NCCOc4c(OC)cccc4OC)cc3C)c2cc1OC` [Example 882, N-[2-(2 6-Dimethoxyphenoxy)ethyl]-N-{4-[(6,7-dimethoxy-4-quinolyl)oxy]-3-methylphenyl}amine]: at c-kit, the inhibition at 1 µM was 36%. In addition, the IC50 at PDGF-Ra worked out at 23 nM.

With `COc1cc2nccc(Oc3ccc(NCCOc4c(F)cccc4F)cc3C)c2cc1OC` [Example 883, N-[2-(2,6-Difluorophenoxy)ethyl]-N-{4-[(6,7-dimethoxy-4-quinolyl)oxy]-3-methylphenyl}amine], at c-kit, the IC50 stood at 521 nM. Moreover, at PDGF-Ra, the IC50 was over 30 nM and the “PDGF (E) inhibition (%), figure in parentheses in >30( )” value is >30(30) %.

`COc1cc2nccc(Oc3ccc(NCCOc4c(OC)cccc4OC)c(C)c3C)c2cc1OC` [Example 884, N-[2-(2,6-Dimethoxyphenoxy)ethyl]-N-{4-[(6,7-dimethoxy-4-quinolyl)oxy]-2,3-dimethylphenyl}amine]: at c-kit, the inhibition at 1 µM is 30%. Further, the IC50 at PDGF-Ra is 44 nM.

For `COc1cc2nccc(Oc3ccc(NCCCOc4ccccc4)cc3)c2cc1OC` [Example 885, N-{4-[(6,7-Dimethoxy-4-quinolyl)oxy]phenyl}-N-(3-phenoxypropyl)amine], the results for the IC50 on c-kit and on PDGF-Ra were 420 nM and under 3 nM, respectively.

`COc1cc2nccc(Oc3cc(C)c(NCCCOc4ccccc4)cc3C)c2cc1OC` [Example 886, N-{4-[(6,7-Dimethoxy-4-quinolyl)oxy]-2 5-dimethylphenyl}-N-(3-phenoxypropyl)amine]: the inhibition at 1 µM at c-kit was 27%. Further, at PDGF-Ra, the IC50 was over 100 nM and the inhibition at 0.1 µM amounted to 47%.

Consider `COc1cc2nccc(Oc3ccc(NCCCOc4ccccc4)c(C)c3C)c2cc1OC` [Example 887, N-{4-[(6,7-Dimethoxy-4-quinolyl)oxy]-2,3-dimethylphenyl}-N-(3-phenoxypropyl)amine], for which the inhibition at 1 µM on c-kit turned out to be 20%. In addition, the IC50 on PDGF-Ra was determined as 50 nM.

With `COc1cc2nccc(Oc3ccc(NCCCOc4ccccc4C)cc3)c2cc1OC` [Example 888, N-{4-[(6,7-Dimethoxy-4-quinolyl)oxy]phenyl}-N-[3-(2-methylphenoxy)propyl]amine], the IC50 stood at 385 nM on c-kit and 12 nM at PDGF-Ra.

Take `COc1cc2nccc(Oc3cc(C)c(NCCCOc4ccccc4C)cc3C)c2cc1OC` [Example 889, N-{4-[(6,7-Dimethoxy-4-quinolyl)oxy]-2,5-dimethylphenyl}-N-[3-(2-methylphenoxy)propyl]amine]: at c-kit, the inhibition at 1 µM amounted to 28%. At PDGF-Ra, the IC50 is over 100 nM and the inhibition at 0.1 µM was determined as 30%.

Regarding `COc1cc2nccc(Oc3ccc(NCCCOc4ccccc4C)c(C)c3C)c2cc1OC` [Example 890, N-{4-[(6,7-Dimethoxy-4-quinolyl)oxy]-2,3-dimethylphenyl}-N-[3-(2-methylphenoxy)propyl]amine], at c-kit, the inhibition at 1 µM turned out to be 39%. Moreover, the IC50 at PDGF-Ra amounted to 95 nM.

For `COc1cc2nccc(Oc3ccc(NCCCOc4ccccc4Cl)cc3)c2cc1OC` [Example 891, N-[3-(2-Chlorophenoxy)propyl]-N-{4-[(6,7-dimethoxy-4-quinolyl)oxy]phenyl}amine], the values for the 50% inhibitory concentration (IC50) on c-kit and at PDGF-Ra were 280 nM and 7 nM, respectively.

Take `COc1cc2nccc(Oc3cc(C)c(NCCCOc4ccccc4Cl)cc3C)c2cc1OC` [Example 892, N-[3-(2-Chlorophenoxy)propyl]-N-{4-[(6,7-dimethoxy-4-quinolyl)oxy]-2,5-dimethylphenyl}amine]: at c-kit, the inhibition at 1 µM worked out at 30%. Further, at PDGF-Ra, the IC50 is over 100 nM and the inhibition at 0.1 µM was determined as 25%.

With `COc1cc2nccc(Oc3ccc(NCCCOc4ccccc4Cl)c(C)c3C)c2cc1OC` [Example 893], the half-maximal inhibitory concentration (IC50) was determined as 640 nM at c-kit and 52 nM at PDGF-Ra.

`COc1cc2nccc(Oc3ccc(NCCOc4c(C)cccc4C)c(C)c3C)c2cc1OC` [Example 894, N-{4-[(6,7-Dimethoxy-4-quinolyl)oxy]-2,3-dimethylphenyl}-N-[2-(2,6-dimethylphenoxy)ethyl]amine]: the inhibition at 1 µM on c-kit is 23%. Also, at PDGF-Ra, the IC50 was over 100 nM and the inhibition at 0.1 µM came to 49%.

For the compound `COc1cc2nccc(Oc3cc(C)c(NCCOc4c(C)cccc4C)cc3C)c2cc1OC` [Example 895, N-{4-[(6,7-Dimethoxy-4-quinolyl)oxy]-2,5-dimethylphenyl}-N-[2-(2,6-dimethylphenoxy)ethyl]amine], the inhibition at 1 µM on c-kit came out at 20%. Also, on PDGF-Ra, the half-maximal inhibitory concentration (IC50) was over 100 nM and the inhibition at 0.1 µM came to 33%.

As to `COc1cc2nccc(Oc3cc(C)c(NCCOc4c(OC)cccc4OC)cc3C)c2cc1OC` [Example 896, N-[2-(2,6-Dimethoxyphenoxy)ethyl]-N-{4-[(6,7-dimethoxy-4-quinolyl)oxy]-2,5-dimethylphenyl}amine], the inhibition at 1 µM at c-kit was 31%. Besides, the IC50 at PDGF-Ra amounted to 96 nM.

For `COc1cc2nccc(Oc3ccc(NC(=S)NC(=O)c4ccccc4Cl)c(F)c3)c2cc1OC` [Example 905, N-(2-Chlorobenzoyl)-N′-{4-[(6,7-dimethoxy-4-quinolyl)oxy]-2-fluorophenyl}thiourea], the inhibition at 1 µM at c-kit came to 40%. Besides, at PDGF-Ra, the IC50 amounted to 5 nM.

For the compound `COc1cc2nccc(Oc3ccc(NC(=S)NC(=O)c4ccccc4I)c(F)c3)c2cc1OC` [Example 908, N-{4-[(6,7-Dimethoxy-4-quinolyl)oxy]-2-fluorophenyl}-N′-(2-iodobenzoyl)thiourea], the IC50 stood at 757 nM on c-kit and 9 nM at PDGF-Ra.

As to `COc1cc2nccc(Oc3ccc(NC(=S)NC(=O)c4ccccc4I)cc3F)c2cc1OC` [Example 915, N-{4-[(6,7-Dimethoxy-4-quinolyl)oxy]-3-fluorophenyl}-N′-(2-iodobenzoyl)thiourea], the values for the concentration for half-maximal inhibition (IC50) on c-kit and on PDGF-Ra were 240 nM and 9 nM, respectively.

Regarding `COc1cc2nccc(Oc3ccc(NC(=S)NC(=O)c4ccccc4C(F)(F)F)cc3F)c2cc1OC` [Example 917, N-{4-[(6,7-Dimethoxy-4-quinolyl)oxy]-3-fluorophenyl}-N′-[2-(trifluoromethyl)benzoyl]thiourea], the IC50 on c-kit is 546 nM; on PDGF-Ra, 132 nM.

With `COc1cc2nccc(Oc3ccc(NC(=S)NC(=O)c4ccccc4C)c([N+](=O)[O-])c3)c2cc1OC` [Example 925, N-{4-[(6,7-Dimethoxy-4-quinolyl)oxy]-2-nitrophenyl}-N′-(2-methylbenzoyl)thiourea], the IC50 was found to be 430 nM at c-kit and 35 nM at PDGF-Ra.

Turning to `COc1cc2ncnc(Oc3ccc(NC(=S)NC(=O)c4ccccc4C)cc3)c2cc1OC` [Example 927, N-{4-[(6,7-Dimethoxy-4-quinazolinyl)oxy]phenyl}-N′-(2-methylbenzoyl)thiourea], the results for the IC50 on c-kit and at PDGF-Ra were 623 nM and 5 nM, respectively.

With `COc1cc2nccc(Oc3ccc(NC(=S)NC(=O)c4cccc(C)c4)cc3)c2cc1OC` [Example 930, N-{4-[(6,7-Dimethoxy-4-quinolyl)oxy]phenyl}-N′-(3-methylbenzoyl)thiourea], the IC50 is 184 nM at c-kit and under 10 nM at PDGF-Ra.

In the case of `COc1cc2nccc(Oc3ccc(NC(=S)NC(=O)c4ccc(C)cc4)cc3)c2cc1OC` [Example 959, N-{4-[(6,7-Dimethoxy-4-quinolyl)oxy]phenyl}-N′-(4-methylbenzoyl)thiourea], the half-maximal inhibitory concentration (IC50) at c-kit was 300 nM; on PDGF-Ra, under 10 nM.

As to `COc1cc2nccc(Oc3ccc(NC(=S)NC(=O)c4ccc(I)cc4)c(F)c3)c2cc1OC` [Example 967, N-{4-[(6,7-Dimethoxy-4-quinolyl)oxy]-2-fluorophenyl}-N′-(4-iodobenzoyl)thiourea], the inhibition at 1 µM at c-kit worked out at 15%. Moreover, the half-inhibitory concentration (IC50) at PDGF-Ra is 20 nM.

As for `COc1cc2nccc(Oc3ccc(NC(=S)NC(=O)c4ccc5c(c4)OCO5)cc3)c2cc1OC` [Example 989, N-(1,3-Benzodioxol-5-ylcarbonyl)-N′-{4-[(6,7-dimethoxy-4-quinolyl)oxy]phenyl}thiourea], the IC50 at c-kit amounted to 425 nM; on PDGF-Ra, 14 nM.

Source of the values: patent US7135466B2 (Kirin Beer Kabushiki Kaisha, priority 1999, dated 2006).
